{
  "source": "patent US11083723B2",
  "about": "“Use of roluperidone to treat negative symptoms and disorders, increase neuroplasticity, and promote neuroprotection” (Minerva Neurosciences, Inc., priority 2018, dated 2021)",
  "key": {"[1]": {"test_system": "BDNF release by primary rat astrocytes", "assay": "BDNF release by primary rat astrocytes, in situ ELISA", "format": "cell-based", "conditions": "5 days incubation", "experimental": "At confluency, astrocytes were plated in 96-well Nunc MaxiSorp surface polystyrene flat-bottom immunoplate precoated with poly-D-lysine during 30 min. and an anti-BDNF monoclonal antibody overnight at 4° C. at a density of 30,000 cells/well. […] At the end of drug treatment, cells were carefully washed with TBST (20 mM Tris-HCl (pH 7.6), 150 mM NaCl, and 0.05% (vol/vol) Tween 20). The plate was then incubated with the polyclonal anti-human BDNF antibody overnight and BDNF quantified. Experimental Protocol-In Situ ELISA on Primary Astrocytes Rat Primary Culture of Astrocytes Rat mixed glial cells were cultured as described by McCarthy et al. Primary rat glial cells were prepared from the cortical of newborn Wistar rats (1 day). […] Medium was changed 3 times per week. At confluency, astrocytes were plated in 96-well Nunc MaxiSorp surface polystyrene flat-bottom immunoplate precoated with poly-D-lysine during 30 min (Sigma, Ref: […], batch: SLBS8705) and an anti-BDNF monoclonal antibody overnight at 4° C. at a density of 30,000 cells/well. (Balkowiec and Katz “Cellular Mechanisms Regulating Activity-Dependent Release of Native Brain-Derived Neurotrophic Factor from Hippocampal Neurons” J. […] At the end of drug treatment, cells were carefully washed with TBST (20 mM Tris-HCl (pH 7.6), 150 mM NaCl, and 0.05% (vol/vol) Tween 20). The plate was then incubated with the polyclonal anti-human BDNF antibody overnight. The amount of specifically bound polyclonal antibody, which when exposed to chromogenic substrate (TMB reagent; Promega), changes color in proportion to the amount of BDNF present in the sample. The color intensity was quantified by measuring the absorbance at 450 nm. BDNF standards, ranging in concentration from 0 to 500 pg/mL were added in parallel wells in the same medium than hippocampal neurons."}, "[2]": {"test_system": "BDNF expression by astrocytes", "assay": "BDNF expression by astrocytes, qPCR", "format": "cell-based, rat", "conditions": "for BDNF expression astrocytes, % increase of control conditions: 5 days incubation; for BDNF expression by astrocytes, fold change (Fc) compared to control condition: 5 days", "experimental": "For analysis of BDNF expression by real-time quantitative polymerase chain reaction (qPCR), astrocytes were seeded in 24 well-plates pre-coated with poly-D-lysine. After 1 day of culture, fresh serum free medium containing compounds was added during 5 days at 37° C. At the end of the incubation time total RNA content were extracted and reverse transcription was performed. Expression levels were calculated using the ΔCt method where the expression level of the mRNA of interest is given by 2-ΔCT with ΔCT=CT target mRNA−CT reference mRNA (Gapdh), in the same sample.\nRat Primary Culture of Astrocytes—rat mixed glial cells were cultured as described by McCarthy et al., 1980. Primary rat glial cells were prepared from the cortical of newborn Wistar rats (1 day). Briefly, meninges and blood vessels of the mice cortex were removed and placed in ice-cold medium of Leibovitz (L15; PanBiotech, ref P04-27055, batch 4511117) containing 2% of Penicillin-Streptomycin (PS; PanBiotech, ref P06-07100, batch 2110917) and 1% of bovine serum albumin (BSA; PanBiotech, ref P06-1391100, batch H171006). Tissues were dissociated with 0.25% trypsin-EDTA (PanBiotech, ref P10-023100, batch 8970318) at 37° C. for 10 min. Cells were then submitted to a supplementary incubation of 15 min at 37° C. in presence of deoxyribonuclease I (0.1 mg/ml Panbiotech, ref: P60-37780100, batch: H170706). Cells were then pelleted (5 min at 1200 rpm) and trypsinization was stopped by adding DMEM (Panbiotech, Ref P04-03600, Batch 5181217) supplemented with 10% FCS (Fischer, Ref 10270106, batch 42G2068K), 1 mM of Na/pyruvate (PanBiotech, ref: P04-43100, batch: 3470914) and 2% PS. Cells suspension was mechanically dissociated and filtered through 40 μm diameter nylon meshes (BD Falcon, Ref: 352340). The cells were collected by centrifugation at 1200 rpm/min for 10 min, re-suspended in culture medium and then plated in culture flasks (Dutscher, ref: 690175). Cells were seeded at a density of 1.25×10^5 cells/cm^2 and cultured in 5% CO2 at 37° C. Medium was changed three times per week.\nAnalysis of BDNF expression by real-time quantitative polymerase chain reaction (PCR): astrocytes were seeded in 24 well-plates pre-coated with poly-D-lysine (Sigma, ref P7886, batch: SLBQ9797V). After 1 day of culture, fresh serum free medium containing compounds was added during 5 days at 37° C. At the end of the incubation time, medium was removed and total RNA content were extracted using kit nucleo spin RNS XS (Macherey Nagel; 20 μL/well). 6 wells/condition were done. RNA concentration was determined using a Nanodrop 2000 spectrophotometer (Life Technologies ThermoFisher Scientific, Villebon sur Yvette, France).\nReverse transcription was performed on 500 ng of RNA using the high capacity RNA-to-cDNA mix (Applied Biotechnologies). qPCR was performed on 12.5 ng of cDNA using the following primers, purchased from Applied Biotechnology.\nFor qPCR reactions, the kit TaqMan™ Fast Universal PCR Master Mix (2×) was used. The following volumes were used: mix: 10 uL, enzyme: 4 uL, oligo: 1 uL each, cDNA: 5 uL (12,5 ng). For the comparisons between various compounds and concentrations, expression levels were calculated using the ΔCt method where the expression level of the mRNA of interest is given by 2-ΔCT with ΔCT=CT target mRNA−CT reference mRNA (Gapdh), in the same sample. For the cultures treated with GA or the unknown compound, relative expression levels were determined according to the ΔΔCt method where the expression level of the mRNA of interest is given by 2-ΔΔCT where ΔΔCT=ΔCt for treated cultures−ΔCt for untreated cultures."}, "[3]": {"biological_target": "5-HT2A receptors (Homo sapiens, UniProt P28223)", "sequence (P28223 whole entry)": "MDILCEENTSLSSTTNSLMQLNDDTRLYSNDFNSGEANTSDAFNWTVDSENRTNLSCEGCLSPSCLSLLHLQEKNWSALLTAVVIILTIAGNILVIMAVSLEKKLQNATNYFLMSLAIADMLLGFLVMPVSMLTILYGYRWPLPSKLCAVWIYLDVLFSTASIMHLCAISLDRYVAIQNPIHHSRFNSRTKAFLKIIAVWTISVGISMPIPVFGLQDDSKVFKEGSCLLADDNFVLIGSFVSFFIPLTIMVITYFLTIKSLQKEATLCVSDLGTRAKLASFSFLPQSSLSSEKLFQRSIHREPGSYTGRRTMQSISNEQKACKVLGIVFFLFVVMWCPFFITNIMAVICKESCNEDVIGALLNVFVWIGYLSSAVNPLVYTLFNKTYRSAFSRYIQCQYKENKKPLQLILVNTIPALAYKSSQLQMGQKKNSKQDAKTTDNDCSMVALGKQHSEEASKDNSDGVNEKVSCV", "assay": "Molecular binding profile, 5-HT2A"}, "[4]": {"conditions": "modified release (MR) formulation of Compound (I) that reduces QT prolongation; cited from earlier work"}},
  "note": "Counter-ions that a name gives are not always drawn.",
  "data": [
    {"smiles": "O=C(CN1CCC(CN2Cc3ccccc3C2=O)CC1)c1ccc(F)cc1", "note": "[Compound (I), 1H-Isoindol-1-one, 2-[[1-[2-(4-Fluorophenyl)-2-oxoethyl]-4-piperidinyl]methyl]-2,3-dihydro-, hydrochloride, hydrate (1:1:2)]", "values": [
      {"measurement": "BDNF release astrocytes, % increase of control conditions", "setting": "[1]; 3 nM", "result": 6.8, "unit": "%"},
      {"measurement": "BDNF release astrocytes, % increase of control conditions", "setting": "[1]; 10 nM", "result": 16.2, "unit": "%"},
      {"measurement": "BDNF release astrocytes, % increase of control conditions", "setting": "[1]; 30 nM", "result": 17.1, "unit": "%"},
      {"measurement": "BDNF release astrocytes, % increase of control conditions", "setting": "[1]; 100 nM", "result": 18.9, "unit": "%"},
      {"measurement": "BDNF release astrocytes, % increase of control conditions", "setting": "[1]; 300 nM", "result": 29.5, "unit": "%"},
      {"measurement": "BDNF release astrocytes, % increase of control conditions", "setting": "[1]; 1 μM", "result": 16.9, "unit": "%"},
      {"measurement": "BDNF expression astrocytes, % increase of control conditions", "setting": "[2]; 0.3 nM", "result": 26, "unit": "%"},
      {"measurement": "BDNF expression astrocytes, % increase of control conditions", "setting": "[2]; 1 nM", "result": 55, "unit": "%"},
      {"measurement": "BDNF expression by astrocytes, fold change (Fc) compared to control condition", "setting": "[2]; 1 nM, p<0.05", "result": 1.55},
      {"measurement": "BDNF expression astrocytes, % increase of control conditions", "setting": "[2]; 3 nM", "result": 81, "unit": "%"},
      {"measurement": "BDNF expression by astrocytes, fold change (Fc) compared to control condition", "setting": "[2]; 3 nM, p<0.001", "result": 1.81},
      {"measurement": "BDNF expression astrocytes, % increase of control conditions", "setting": "[2]; 10 nM", "result": 71, "unit": "%"},
      {"measurement": "BDNF expression by astrocytes, fold change (Fc) compared to control condition", "setting": "[2]; 10 nM, p<0.01", "result": 1.71},
      {"measurement": "BDNF expression astrocytes, % increase of control conditions", "setting": "[2]; 30 nM", "result": 31, "unit": "%"},
      {"measurement": "BDNF expression astrocytes, % increase of control conditions", "setting": "[2]; 100 nM", "result": 5, "unit": "%"},
      {"measurement": "Ki", "setting": "[3]", "result": 7.5, "unit": "nM"},
      {"measurement": "maximum plasma concentration (Cmax)", "setting": "[4]", "result": "below 80 ng/mL"}
    ]}
  ]
}
